{"source": "patent US20190015385A1", "about": "“VITAMIN E PHOSPHATE OR ACETATE FOR USE IN THE TREATMENT AND PREVENTION OF BIOFILM INFECTIONS” (priority 2016, published 2019)", "key": {"[1]": {"tested_on": "P. acnes", "test": "MIC and MBC, broth microdilution (Example 3)", "assay_type": "cell-based", "protocol": "MIC, defined as the lowest concentration capable of inhibiting bacterial growth, was determined using the broth microdilution method according to EUCAST guidelines (http://www.eucast.org/clinical_breakpoints/). In short, a suspension in Brain Heart Infusion Broth ([…], France) was prepared for each bacterial strain, with an optical density of 0.5 McFarland (1.5×10^8 CFU/ml). The P. acnes broth was supplemented with 5% defibrinated sheep blood ([…] Abruzzi, Italy). After a concentration of 10^5 UFC/ml was obtained using appropriate dilutions, each suspension was inoculated in a 96-well microtitre plate containing a two-fold serial dilution of vitamin E acetate (VitE-Ac) and vitamin E phosphate. The controls were performed by inoculating bacterial suspensions in BHI alone. […] After incubation at adequate conditions, MBC was read as the lowest concentration capable of killing 99.9% of the initial inoculum."}, "[2]": {"tested_on": "Escherichia coli", "test": "Anti-biofilm activity, crystal violet spectrophotometric assay (Example 1)", "assay_type": "cell-based", "details": "E. coli", "protocol": "(§1) The bacterial biofilm was formed in a sterile 96-well polystyrene plate. In short, a microbial suspension was prepared at an optical density of 0.5 McFarland for each strain. 20 μl of microbial suspension were added to each well containing 180 μl of VitE at various concentrations. Positive controls were performed by inoculating the bacteria in BHI+HA. Following incubation for 24 h at 37° C., the broth was removed, together with non-adherent microorganisms, and 200 μl of broth were added once again. The plates were incubated at 37° C. for another 48 h, until a mature biofilm was obtained.\n(§2) The amount of biofilm was determined by means of a spectrophotometric assay, adopting the method developed by Christensen et al. (1985). At the end of the incubation period, the culture medium was removed and the wells covered by the biofilm were washed twice with a sterile saline solution and then dried. The biofilm was stained with 200 μl of a 5% crystal violet solution for 10 minutes. After staining, the wells were washed with a sterile saline solution to remove excess stain and left to dry completely. Lastly, 200 μl of 96% ethanol were added to each well to re-solubilize the stain included in the biofilm. Absorbance of the crystal violet was measured at 595 nm using a microplate reader. The assay was conducted in triplicate for each bacterial strain and repeated twice."}, "[3]": {"tested_on": "Candida albicans", "test": "Anti-biofilm activity, crystal violet spectrophotometric assay (Example 1)", "assay_type": "cell-based", "details": "C. albicans", "protocol": "as §1, §2"}, "[4]": {"tested_on": "S. epidermidis", "test": "MIC and MBC, broth microdilution (Example 3)", "assay_type": "cell-based, Staphylococcus epidermidis", "details": "S. epidermidis strains", "text": "This study used clinically relevant strains isolated from patients with prosthetic joint infections at the Microbiology Laboratory of the IRCCS Galeazzi Orthopaedic institute (Italy). In particular, the following were selected: strains of methicillin-resistant Staphylococcus epidermidis, of methicillin-resistant Staphylococcus aureus and of Pseudomonas aeruginosa. These strains were identified beforehand by means of biochemical assays (VITEK® 2 Compact, bioMérieux, Marcy l'Etoile, France) and stored at −80° C. prior to the analysis. Before beginning the study, all strains were screened to assess their ability to produce biofilms, according to the spectrophotometric assay described by Christensen et al. (J Clin Microbiol 1985; 22: 996-1006).\nThe bacteriostatic and bactericidal activity of vitamin E acetate and vitamin E phosphate against the above-mentioned bacterial strains was assessed by measuring the minimum inhibitory concentration (MIC) and the minimum bactericidal concentration (MBC). MIC, defined as the lowest concentration capable of inhibiting bacterial growth, was determined using the broth microdilution method according to EUCAST guidelines (http://www.eucast.org/clinical_breakpoints/).\nIn short, a suspension in Brain Heart Infusion Broth (BHI; Biomérieux, Marci l'Etoile, France) was prepared for each bacterial strain, with an optical density of 0.5 McFarland (1.5×10^8 CFU/ml). The P. acnes broth was supplemented with 5% defibrinated sheep blood (Liofilchem, Roseto degli Abruzzi, Italy). After a concentration of 10^5 UFC/ml was obtained using appropriate dilutions, each suspension was inoculated in a 96-well microtitre plate containing a two-fold serial dilution of vitamin E acetate (VitE-Ac) and vitamin E phosphate. The controls were performed by inoculating bacterial suspensions in BHI alone. […] After incubation at adequate conditions, MBC was read as the lowest concentration capable of killing 99.9% of the initial inoculum."}, "[5]": {"tested_on": "methicillin-resistant Staphylococcus aureus", "test": "Biofilm on coated titanium disks, CFU count (Example 2)", "assay_type": "cell-based", "details": "S. aureus, vitamin E acetate 5 mg/cm^2, methylene blue 20 μg/cm^2", "text": "(§3) This study used clinically relevant strains isolated from patients with prosthetic joint infections at the Microbiology Laboratory of the IRCCS Galeazzi Orthopaedic Institute (Italy). In particular, the following were selected: a strain of methicillin-resistant Staphylococcus epidermidis, a strain of methicillin-resistant Staphylococcus aureus and a strain of Pseudomonas aeruginosa. These strains were identified beforehand by means of biochemical assays (VITEK® 2 Compact, bioMérieux, Marcy l'Etoile, France) and stored at −80° C. prior to the analysis. Before beginning the study, all strains underwent testing to assess their ability to produce biofilms according to the spectrophotometric assay described by Christensen et al. (J Clin Microbiol 1985; 22: 996-1006).\n(§4) Sterile disks of sandblasted titanium with a diameter of 25 mm and a thickness of 5 mm (Adler Ortho, Cormano, Italy) were used as the substrate for the formation of biofilms. The disks were coated with sub-inhibitory concentrations of vitamin E acetate (5 mg/cm^2) or vitamin E acetate with the addition of methylene blue (20 μg/cm^2). […] Uncoated disks were used as negative controls. Subsequently, an overnight bacteria culture was resuspended in Brain Heart Infusion Broth (BHI; Biomérieux) at a density of 1.5×10^8 CFU/ml for each strain, and 200 microliters of microbial suspension were inoculated in sterile polystyrene plates with 6 wells containing coated and uncoated disks and 4.8 ml of BHI. The plates were incubated at 37° C. in an aerobic atmosphere for 24 and 48 hours. The test was performed in triplicate for each strain.\n(§5) Upon completion of the biofilm incubation time, the disks were washed twice with a sterile saline solution to eliminate non-adherent bacteria. The disks were then immersed in 5 ml of a 0.1 w/v % dithiothreitol solution (DTT, Sigma-Aldrich, Milan, Italy) and mechanically stirred for 15 minutes at room temperature. Suitable dilutions of the fluids obtained were inoculated on Tryptic Soy Agar (TSA, Merck) and incubated at 37° C. in an aerobic atmosphere for 24 hours for the CFU count."}, "[6]": {"tested_on": "methicillin-resistant Staphylococcus epidermidis", "test": "Biofilm on coated titanium disks, CFU count (Example 2)", "assay_type": "cell-based", "details": "S. epidermidis, vitamin E acetate 5 mg/cm^2, methylene blue 20 μg/cm^2", "text": "as §3, §4, §5"}, "[7]": {"tested_on": "Pseudomonas aeruginosa", "test": "Biofilm on coated titanium disks, CFU count (Example 2)", "assay_type": "cell-based", "details": "P. aeruginosa, vitamin E acetate 5 mg/cm^2, methylene blue 20 μg/cm^2", "text": "as §3, §4, §5"}, "[8]": {"details": "kills 99.9% of the initial inoculum"}}}
{"smiles": "CC(=O)Oc1c(C)c(C)c2c(c1C)CCC(C)(CCC[C@H](C)CCC[C@H](C)CCCC(C)C)O2", "note": "(stereo partly drawn) [Vitamin E acetate, α-tocopherol acetate]", "values": [{"measurement": "MIC range", "setting": "[1]; 48 hours, broth with 5% defibrinated sheep blood", "value": ">200", "unit": "mg/mL"}, {"measurement": "MBC range", "setting": "[1]; [8]", "value": ">200", "unit": "mg/mL"}, {"measurement": "reduction of microbial biofilm with respect to the control", "setting": "[2]; 2.5% VitE in HA carrier", "value": 18, "unit": "%"}, {"measurement": "reduction of microbial biofilm with respect to the control", "setting": "[2]; 5% VitE in HA carrier", "value": 38, "unit": "%"}, {"measurement": "reduction of microbial biofilm with respect to the control", "setting": "[3]; 2.5% VitE in HA carrier", "value": 24, "unit": "%"}, {"measurement": "reduction of microbial biofilm with respect to the control", "setting": "[3]; 5% VitE in HA carrier", "value": 37, "unit": "%"}, {"measurement": "MIC range", "setting": "[4]; 24 hours", "value": ">200", "unit": "mg/mL"}, {"measurement": "MBC range", "setting": "[4]; [8]", "value": ">200", "unit": "mg/mL"}, {"measurement": "biofilm reduction with respect to the controls (in words)", "setting": "[5]; 24 hours", "value": "significant"}, {"measurement": "biofilm reduction with respect to the controls (in words)", "setting": "[5]; 48 hours", "value": "significant"}, {"measurement": "biofilm reduction with respect to the controls (in words)", "setting": "[6]; 24 hours", "value": "significant"}, {"measurement": "biofilm reduction with respect to the controls (in words)", "setting": "[6]; 48 hours", "value": "significant"}, {"measurement": "biofilm reduction with respect to the controls (in words)", "setting": "[7]; 24 hours", "value": "not after 24 hours"}, {"measurement": "biofilm reduction with respect to the controls (in words)", "setting": "[7]; 48 hours", "value": "effective after 48 hours"}]}
